Where two headings read alike, the source gives them in different places.
Test system: pressor response to angiotensin II
Assay: Inhibition of pressor response to angiotensin II in conscious rats
Format: in vivo
Conditions: Rattus norvegicus, read-out: IC50 (dose of compound needed to produce 50% inhibition of the control response to angiotensin II)
Experimental: Angiotensin II antagonist activity of the compounds of Formula (I) is assessed by in vitro and in vivo methods. In vitro antagonist activity is determined by the ability of the compounds to compete with ^125 I-angiotensin II for binding to vascular angiotensin II receptors and by their ability to antagonize the contractile response to angiotensin II in the isolated rabbit aorta. In vivo activity is evaluated by the efficacy of the compounds to inhibit the pressor response to exogenous angiotensin II in conscious rats and to lower blood pressure in a rat model of renin dependent hypertension.
Rats are prepared with indwelling femoral arterial and venous catheters and a stomach tube (Gellai et al., Kidney Int. 15:419, 1979). Two to three days following surgery the rats are placed in a restrainer and blood pressure is continuously monitored from the arterial catheter with a pressure transducer and recorded on a polygraph. The change in mean arterial pressure in response to intravenous injections of […] angiotensin II is compared at various time points prior to and following the administration of the compounds intravenously or orally at doses of 3 to 300 mg/kg. The dose of compound needed to produce 50% inhibition of the control response to angiotensin II (IC50) is used to estimate the potency of the compounds.

Question: With `CCCCc1ncc(/C=C(\Cc2cccs2)c2nnn[nH]2)n1Cc1ccccc1Cl` [Example 1, (E)-1-[2-n-Butyl-1-{(2-chlorophenyl)methyl}-1H-imidazol-5-yl]-2-(1H-tetrazol-5-yl)-3-(2-thienyl)-1-propene] as the compound, how does the ED50 (iv) read?
Answer: The ED50 was 8 mg/kg.

Question: And the ED50 (po, orally)?
Answer: The ED50 was 13 mg/kg.

From patent US5177096A, “Substituted 5-((tetrazolyl)alkenyl)imidazoles and pharmaceutical methods of use thereof” (SmithKline Beecham Corporation, priority 1990, dated 1993)
